Results reported in patent US11013710B2, “Synergistic compositions of bioactive agents for optimizing cellular health” (CELAGENEX RESEARCH (INDIA) PVT. LTD., priority 2018, dated 2021).

Key:
[1] = tested on: HepG2 cells; assay: DNA fragmentation (DNA ladder assay) in HepG2 cells; type: cell-based, Human
Protocol: FIG. 3 depicts DNA ladder assay of test substances on HepG2 cell line; L=100 bp Ladder, Lane 1=AAPH (1 mM), Lane 2=cell control, Lane 3=G3 (250 μg/ml), Lane 4=G4(250 μg/ml), Lane 5=G5 (5:125-250 μg/ml), Lane 6=G3+AAPH, Lane 7=G4+AAPH, Lane 8=G5+AAPH
HepG2 cells (3×10^6/ml) were seeded into 60 mm petri dishes and incubated at 37° C. with 5% CO2 atmosphere for 24 h. The cells were washed with medium and were treated with extract, standard substance and incubated at 37° C., 5% CO2 for 24 hrs. At the incubation time ended, the chromosomal DNA of cancer cells was prepared with G Biosciences, USA apoptotic DNA ladder kit. Total genomic DNA was extracted and resolved on a 1% agarose gel. Apoptotic DNA fragmentation was visualized by ethidium bromide staining under UV transilluminator and photographed. (FIG. 3)

[2] = tested on: IL-6; assay: Serum IL-6 levels in carrageenan paw edema rats; type: in vivo, Rat; details: for IL-6: rat serum after paw volume measurement, Mean±SEM; for Serum interleukin-6 compared with positive control (G2) / Percentage inhibition over control (serum IL-6): rat serum; for Serum interleukin-6 compared with positive control (G2): result in words; for Percentage inhibition over control (serum IL-6): vs positive control
Protocol: (§1) Acute anti inflammatory activity was measured using carrageenan induced rat paw edema model. Acute inflammation was induced by the sub planter administration of 0.1 ml of 1% carrageenan (0.9% NaCl solution) in the right hind paw of the rats. Group 1 was treated with normal saline. Group 2 positive control was treated with normal saline (with paw edema induction). Group 3, Group 4 and Group 5 were treated with test substance (G1—0.512 mg/kg, G2—12.33 mg/kg and G3-0.512 mg/kg+12.33 mg/kg bw) respectively. Excluding control group, all groups were pretreated 1 hr before eliciting paw edema. The linear paw circumference was measured at Time intervals: 0, 30, 60, 120, 180 and 240 mins. The perimeter of paw was measured by using vernier calipers. After the completions of the paw volume measurement animals were anesthetized and blood was collected for biochemical parameter analysis. The values were expressed in Mean±SEM. The significance of in vivo data was analyzed by One way anova followed by Dunnet test. P<0.05 was considered as statistically significant

[3] = tested on: HepG2 cell line; assay: In vitro cytotoxicity (MTT) against HepG2 cell line; type: cell-based, Human; details: 72 h
Protocol: In-vitro cytotoxicity of the nutrients, G3, G4 and G5 were tested against HepG2 cell line. Nutrients were taken at concentrations ranging from 1000 μg/ml to 62.5 μg/ml to determine the percentage growth inhibition of individual substance on HepG2 cell line. The samples G3 and G4 produced a CTC50 value of above 1000 μg/ml. […] [Journal of Immunological Methods, 1986; 89:271-277].
The in vitro cytotoxicity was performed for samples G3, G4 and G5 on HepG2 to find toxic concentration and to determine the apoptotic activity of G3, G4 and G5.
(§2) For cytotoxicity studies, 10 mg of test substance was separately dissolved and volume was made up with MEM supplemented with 2% inactivated FBS to obtain a stock solution of 1 mg/ml concentration and sterilized by 0.22μ syringe filtration. Serial two fold dilutions were prepared from this for carrying out cytotoxic studies.
(§3) HepG2 (Human Hepatocyte) cell line was procured from National Centre for Cell Sciences (NCCS), Pune, India. Stock cells were cultured in MEM supplemented with 10% inactivated Fetal Bovine Serum (FBS), penicillin (100 IU/ml), streptomycin (100 μg/ml) and amphotericin B (5 μg/ml) in an humidified atmosphere of 5% CO2 at 7° C. until confluent. The cells were dissociated with TPVG solution (0.2% trypsin, 0.02% EDTA, 0.05% glucose in PBS). The stock cultures were grown in 25 cm^2 culture flasks and all experiments were carried out in 96 microtitre plates (Tarsons India Pvt. Ltd., Kolkata, India).
The monolayer cell culture was trypsinized and the cell count was adjusted to 100,000 cells/ml using DMEM-HG containing 10% FBS. To each well of the 96 well microtitre plate, 0.1 ml of the diluted cell suspension was added. After 24 h, when a partial monolayer was formed, the supernatant was flicked off, washed the monolayer once with medium and 100 μl of different test concentrations of test substances were added on to the partial monolayer in microtitre plates. The plates were then incubated at 37° C. for 3 days in 5% CO2 atmosphere, and microscopic examination was carried out and observations were noted every 24 h interval. After 72 h, the substance solutions in the wells were discarded and 50 μl of MTT in PBS was added to each well. The plates were gently shaken and incubated for 3 h at 37° C. in 5% CO2 atmosphere. The supernatant was removed and 100 μl of propanol was added and the plates were gently shaken to solubilize the formed formazan. The absorbance was measured using a microplate reader at a wavelength of 540 nm. The percentage growth inhibition was calculated using the standard formula and concentration of test substance needed to inhibit cell growth by 50% (CTC50) values is generated from the dose-response curves for each cell line.
as §2, with “substance powder” for “substance”, “with DMEM” for “with MEM”, “of 10” for “of 1”
as §3, with “DMEM” for “MEM”, “37°” for “7°”, “cm2” for “cm^2”
The monolayer cell culture was trypsinized and the cell count was adjusted to 100,000 cells/ml using medium containing 10% FBS. To each well of the 96 well microtitre plate, 0.1 ml of the diluted cell suspension was added. […]

[4] = tested on: TNF-Alpha; assay: Serum TNF-Alpha levels in carrageenan paw edema rats; type: in vivo, Rat; details: for TNF-Alpha: rat serum after paw volume measurement, Mean±SEM; for Serum TNF-Alpha compared with positive control (G2) / Percentage inhibition over control (serum TNF-Alpha): rat serum; for Serum TNF-Alpha compared with positive control (G2): result in words; for Percentage inhibition over control (serum TNF-Alpha): vs positive control
Protocol: as §1

[5] = tested on: Nrf2; assay: In vitro gene expression of Nrf2 (RT-PCR) in HepG2; type: cell-based, Human; details: HepG2, 250 μg/ml; cell control 1.00
Protocol: Nrf2 were estimated for the test substance by gene expression method, where the level of expression of Nrf2 expression on Human Hepatocytes (HepG2) was determined with respect to untreated HepG2 cells. The HepG2 cells treated with drug were subjected to cell lysis by treating with Tri-extract reagent. Chloroform was added, to isolate the total RNA from the sample and subjected for centrifugation. […] After the incubation followed by centrifugation, appropriate volume of ethanol was added to resuspend the pellet. After incubation and centrifugation, the pellet was air dried and appropriate volume of TAE buffer was added. […] The cDNA thus synthesized was taken up for Polymerase chain reaction (PCR) for the amplification of Nrf2 and Glyceraldehyde 3-phosphate dehydrogenase GAPDH (internal control). The mRNA expression levels of Nrf2 were determined using semi-quantitative reverse transcriptase-polymerase chain reaction (RT-PCR). 50 μl of the reaction mixture was subjected to PCR for amplification of Nrf2. cDNAs using specifically designed primers procured from Eurofins, India and as an internal control GAPDH (House keeping gene) was co-amplified with each reaction. Nrf2: 95° C. for 5 min followed by 35 cycles of denaturation at 95° C. for 30 seconds, annealing Tm for 30 seconds and extension at 72° C. for 45 seconds. This was followed by final extension at 72° C. for 10 min.

[6] = tested on: carrageenan induced rat paw edema; assay: Carrageenan induced rat paw edema model (acute anti-inflammatory activity); type: in vivo; details: for % inhibition of paw edema at 6th hr.: pretreated 1 hr before, L-EGT 0.512 mg/kg, NMN chloride 12.33 mg/kg, combination 0.512+12.33 mg/kg bw, vs positive control; for paw edema compared with Positive control group (G2): result in words
Protocol: as §1, with “In study thirty (30) rats, were divided into total […] groups. […] G3-G4 groups are referred as test substances. Acute anti” for “Acute anti”, “paw edema. […] The perimeter” for “paw edema. The linear paw circumference was measured at Time intervals: 0, 30, 60, 120, 180 and 240 mins. The perimeter”, “analysis. The anti-inflammatory activity was calculated by following formula % inhibition of edema=((T−T0)/T)×100 T: Thickness of paw in positive control group T0: Thickness of paw edema in the test compound treated groups. The values were” for “analysis. The values were”

CC(C)(N=NC(C)(C)C(=N)N)C(=N)N.Cl.Cl [AAPH, 2,2′-azobis(2-amidinopropane)dihydrochloride, reference compound]
DNA fragmentation ([1]; HepG2, AAPH (1 mM)): showed a smear in the gel indicating the DNA fragmentation

C[N+](C)(C)[C@@H](Cc1c[nH]c(=S)[nH]1)C(=O)[O-] [L-Ergothioneine]
IL-6 [2]: 85.25 ± 0.30 pg/mL | Serum interleukin-6 compared with positive control (G2) [2]: significantly decreased | Percentage inhibition over control (serum IL-6) [2]: 15.74% | inhibition at 62.5 µg/mL ([3]; Homo sapiens, Test Conc. 62.5 μg/ml): 6.62 ± 0.88% | inhibition at 125 µg/mL ([3]; Homo sapiens, Test Conc. 125 μg/ml): 11 ± 1.31% | inhibition at 250 µg/mL ([3]; Homo sapiens, Test Conc. 250 μg/ml): 19 ± 1.05% | inhibition at 1000 µg/mL ([3]; Homo sapiens, Test Conc. 1000 μg/ml): 30 ± 1.52% | IC50 ([3]; Homo sapiens, concentration needed to inhibit cell growth by 50%, read-out: CTC 50 in μg/ml): > 1000 µg/mL | DNA fragmentation ([1]; HepG2, 250 μg/ml, 24 hrs): did not exhibit any fragmentation of DNA | TNF-Alpha [4]: 201.5 ± 1.96 pg/mL | Serum TNF-Alpha compared with positive control (G2) [4]: significantly decreased | Percentage inhibition over control (serum TNF-Alpha) [4]: 13.21% | Regulation in Terms of Folds (gene expression level of Nrf2 normalized to GAPDH) [5]: >1.0 Folds | % inhibition of paw edema at 6th hr. [6]: 35.08% | paw edema compared with Positive control group (G2) [6]: significant decreases paw edema

Nicotinamide mononucleotide chloride
IL-6 [2]: 79.55 ± 0.95 pg/mL | Serum interleukin-6 compared with positive control (G2) [2]: significantly decreased | Percentage inhibition over control (serum IL-6) [2]: 21.34% | % Inhibition ([3]; Test Conc. 62.5 μg/ml): 5.26 ± 1.5% | % Inhibition ([3]; Test Conc. 125 μg/ml): 11.15 ± 3.32% | % Inhibition ([3]; Test Conc. 250 μg/ml): 17.56 ± 1.16% | % Inhibition ([3]; Test Conc. 500 μg/ml): 24.19 ± 1.59% | % Inhibition ([3]; Test Conc. 1000 μg/ml): 31.49 ± 0.79% | DNA fragmentation ([1]; HepG2, 250 μg/ml, 24 hrs): did not exhibit any fragmentation of DNA | TNF-Alpha [4]: 185.2 ± 4.37 pg/mL | Serum TNF-Alpha compared with positive control (G2) [4]: significantly decreased | Percentage inhibition over control (serum TNF-Alpha) [4]: 20.18% | Regulation in Terms of Folds (gene expression level of Nrf2 normalized to GAPDH) [5]: >1.0 Folds | % inhibition of paw edema at 6th hr. [6]: 40.80% | paw edema compared with Positive control group (G2) [6]: significant decreases paw edema
